Source: patent US12344603B2 (Genentech, Inc., priority 2020, dated 2025)

Biological target: IRE1α (Homo sapiens (Human), UniProt O75460, D688N)
Experiment: IRE1α TR-FRET competition binding assay (IRE1α HTRF)
Conditions: TR-FRET competition binding to kinase domain of IRE1α
Summary of the method: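 Kinase domain (0.25 nM) pre-bound to 2 nM Eu anti-His antibody for 1 h at 4° C in HEPES pH 7.5/MgCl2/Brij 35/DTT/gamma globulin buffer, then mixed with compounds and 2 nM Alexa 647 ATP-competitive probe. 1 h at room temperature; probe displacement read as TR-FRET (Ex 347 nm, Em 665/615 nm).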

Sequence of IRE1α (O75460 547-977 D688N): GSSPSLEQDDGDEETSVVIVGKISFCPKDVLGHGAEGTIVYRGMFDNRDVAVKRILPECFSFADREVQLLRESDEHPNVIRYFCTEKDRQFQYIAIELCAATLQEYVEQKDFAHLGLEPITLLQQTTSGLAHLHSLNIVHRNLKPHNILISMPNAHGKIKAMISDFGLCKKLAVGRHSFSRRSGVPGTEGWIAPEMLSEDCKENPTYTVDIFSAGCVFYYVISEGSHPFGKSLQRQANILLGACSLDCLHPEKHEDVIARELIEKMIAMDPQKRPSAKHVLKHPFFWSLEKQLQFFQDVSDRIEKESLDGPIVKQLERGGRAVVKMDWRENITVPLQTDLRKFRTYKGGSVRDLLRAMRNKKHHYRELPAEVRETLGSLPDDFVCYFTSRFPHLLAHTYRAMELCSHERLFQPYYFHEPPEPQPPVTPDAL

Row | SMILES | IC50 [pM]
1 | CC(C)n1c(=O)c(-c2ccc(NS(=O)(=O)CCC(F)(F)F)c(F)c2)cc2cnc(N[C@H]3CC[C@H](N4CC5(COC5)C4)CC3)nc21 [Compound 212, N-(4-(2-(((1,4-trans)-4-(2-Oxa-6-azaspiro[3.3]heptan-6-yl)cyclohexyl)amino)-8-isopropyl-7-oxo-7,8-dihydropyrido[2,3-d]pyrimidin-6-yl)-2-fluorophenyl)-3,3,3-trifluoropropane-1-sulfonamide] | 240
2 | CC(C)n1c(=O)c(-c2ccc(NS(=O)(=O)CCC(F)(F)F)c(F)c2)cc2cnc(N[C@H]3CC[C@H](N4CCOCC4)CC3)nc21 [Compound 213, 3,3,3-Trifluoro-N-(2-fluoro-4-(8-isopropyl-2-(((1,4-trans)-4-morpholinocyclohexyl)amino)-7-oxo-7,8-dihydropyrido[2,3-d]pyrimidin-6-yl)phenyl)propane-1-sulfonamide] | 140
3 | CC(C)n1c(=O)c(-c2ccc(NS(=O)(=O)CCC(F)(F)F)c(F)c2)cc2cnc(NC3CCC(N(C)C)C(O)C3)nc21 (stereo not drawn) [Compound 226, N-(4-(2-((4-(dimethylamino)-3-hydroxycyclohexyl)amino)-8-isopropyl-7-oxo-7,8-dihydropyrido[2,3-d]pyrimidin-6-yl)-2-fluorophenyl)-3,3,3-trifluoropropane-1-sulfonamide] | 300
4 | CC(C)n1c(=O)c(-c2ccc(NS(=O)(=O)CCC(F)(F)F)c(F)c2)cc2cnc(N[C@H]3CC[C@H](N(C)C)[C@@H](O)C3)nc21 [Compound 228, N-(4-(2-(((1S,3S,4S)-4-(dimethylamino)-3-hydroxycyclohexyl)amino)-8-isopropyl-7-oxo-7,8-dihydropyrido[2,3-d]pyrimidin-6-yl)-2-fluorophenyl)-3,3,3-trifluoropropane-1-sulfonamide] | 200
5 | CC(C)n1c(=O)c(-c2ccc(NS(=O)(=O)CCC(F)(F)F)nc2)cc2cnc(N[C@H]3CC[C@H](N(C)C)CC3)nc21 [Example 215, N-(5-(2-(((1r,4r)-4-(dimethylamino)cyclo-hexyl)amino)-8-isopropyl-7-oxo-7,8-dihydropyrido[2,3-d]-pyrimidin-6-yl)pyridin-2-yl)-3,3,3-trifluoro-propane-1-sulfonamide] | 300
6 | CC(C)n1c(=O)c(-c2ccc(NS(=O)(=O)CCC(F)(F)F)nc2)cc2cnc(N[C@@H]3CNC[C@@H](F)C3)nc21 [Example 216, 3,3,3-trifluoro-N-(5-(2-(((3S,5S)-5-fluoro-piperidin-3-yl)amino)-8-isopropyl-7-oxo-7,8-dihydropyrido[2,3-d]-pyrimidin-6-yl)pyridin-2-yl)propane-1-sulfon-amide] | 1700
7 | CC(C)n1c(=O)c(-c2ccc(NS(=O)(=O)CCC(F)(F)F)cn2)cc2cnc(N[C@H]3CC[C@H](N(C)C)CC3)nc21 [Example 218, N-(6-(2-(((1r,4r)-4-(dimethylamino)cyclo-hexyl)amino)-8-isopropyl-7-oxo-7,8-dihydropyrido[2,3-d]-pyrimidin-6-yl)pyridin-3-yl)-3,3,3-trifluoro-propane-1-sulfonamide] | 200
8 | CC(C)n1c(=O)c(-c2ccc(NS(=O)(=O)CCC(F)(F)F)c(F)c2)cc2cnc(NC3CCC4(CC3)CNC4)nc21 [Example 220, N-(4-(2-((2-azaspiro[3.5]nonan-7-yl)amino)-8-isopropyl-7-oxo-7,8-dihydropyrido[2,3-d]pyrimidin-6-yl)-2-fluorophenyl)-3,3,3-trifluoropropane-1-sulfonamide] | 5000
9 | CC(C)n1c(=O)c(-c2ccc(NS(=O)(=O)CCC(F)(F)F)c(F)c2)cc2cnc(NC3CCC4(CC3)CN(C)C4)nc21 [Example 221, 3,3,3-Trifluoro-N-(2-fluoro-4-(8-isopropyl-2-((2-methyl-2-azaspiro[3.5]nonan-7-yl)amino)-7-oxo-7,8-dihydropyrido[2,3-d]pyrimidin-6-yl)phenyl)propane-1-sulfonamide] | 200
10 | CC(C)n1c(=O)c(-c2cnc(NS(=O)(=O)CCC(F)(F)F)c(F)c2)cc2cnc(N[C@H]3CC[C@H](N(C)C)CC3)nc21 [Example 222, N-(5-(2-(((1r,4r)-4-(dimethylamino)cyclo-hexyl)amino)-8-isopropyl-7-oxo-7,8-dihydropyrido[2,3-d]-pyrimidin-6-yl)-3-fluoropyridin-2-yl)-3,3,3-trifluoropropane-1-sulfonamide] | 300
11 | CC(C)n1c(=O)c(-c2ccc(NS(=O)(=O)CCC(F)(F)F)cn2)cc2cnc(N[C@H]3CC[C@H](N(C)C)[C@H](F)C3)nc21 [Example 223, N-(6-(2-(((1S,3R,4S)-4-(Dimethylamino)-3-fluorocyclohexyl)amino)-8-isopropyl-7-oxo-7,8-dihydropyrido[2,3-d]pyrimidin-6-yl)pyridin-3-yl)-3,3,3-trifluoropropane-1-sulfonamide] | 500
12 | CC(C)n1c(=O)c(-c2ccc(NS(=O)(=O)CCC(F)(F)F)nc2)cc2cnc(N[C@H]3CC[C@H](N(C)C)[C@H](F)C3)nc21 [Example 224] | 200
13 | CC(C)n1c(=O)c(-c2ccc(NS(=O)(=O)CCC(F)(F)F)c(F)c2)cc2cnc(NC3CCC(O)C(N(C)C)C3)nc21 (stereo not drawn) [Example 225, N-(4-(2-((3-(Dimethylamino)-4-hydroxycyclohexyl)amino)-8-isopropyl-7-oxo-7,8-dihydropyrido[2,3-d]pyrimidin-6-yl)-2-fluorophenyl)-3,3,3-trifluoropropane-1-sulfonamide] | 5400
14 | CC(C)n1c(=O)c(-c2ccc(NS(=O)(=O)CCC(F)(F)F)c(F)c2)cc2cnc(N[C@@H]3CC[C@@H](N(C)C)[C@H](O)C3)nc21 [Example 227, N-(4-(2-(((1R,3R,4R)-4-(Dimethylamino)-3-hydroxycyclohexyl)amino)-8-isopropyl-7-oxo-7,8-dihydropyrido[2,3-d]pyrimidin-6-yl)-2-fluorophenyl)-3,3,3-trifluoropropane-1-sulfonamide] | 300
15 | CC(C)n1c(=O)c(-c2ccc(NS(=O)(=O)CCC(C)(F)F)c(F)c2)cc2cnc(N[C@H]3CC[C@H](N(C)C)CC3)nc21 [Example 229, N-(4-(2-(((1r,4r)-4-(Dimethylamino)cyclohexyl)amino)-8-isopropyl-7-oxo-7,8-dihydropyrido[2,3-d]pyrimidin-6-yl)-2-fluorophenyl)-3,3-difluorobutane-1-sulfonamide] | 300
16 | CC(C)n1c(=O)c(-c2ccc(NS(=O)(=O)CCC3(C)CC3)c(F)c2)cc2cnc(N[C@H]3CC[C@H](N(C)C)CC3)nc21 [Example 230, N-(4-(2-(((1r,4r)-4-(dimethylamino)cyclo-hexyl)amino)-8-isopropyl-7-oxo-7,8-dihydropyrido[2,3-d]-pyrimidin-6-yl)-2-fluorophenyl)-2-(1-methylcyclopropyl)-ethane-1-sulfonamide] | 200
17 | CC(C)n1c(=O)c(-c2ccc(NS(=O)(=O)CCC3CCC3)c(F)c2)cc2cnc(N[C@H]3CC[C@H](N(C)C)CC3)nc21 [Example 231, 2-cyclobutyl-N-(4-(2-(((1r,4r)-4-(dimethyl-amino)cyclohexyl)-amino)-8-isopropyl-7-oxo-7,8-dihydropyrido-[2,3-d]pyrimidin-6-yl)-2-fluorophenyl)ethane-1-sulfonamide] | 100
18 | CC(C)n1c(=O)c(-c2ccc(NS(=O)(=O)CCCC3CC3)c(F)c2)cc2cnc(N[C@H]3CC[C@H](N(C)C)CC3)nc21 [Example 232, 3-cyclopropyl-N-(4-(2-(((1r,4r)-4-(dimethyl-amino)cyclohexyl)-amino)-8-isopropyl-7-oxo-7,8-dihydropyrido-[2,3-d]pyrimidin-6-yl)-2-fluorophenyl)propane-1-sulfonamide] | 200
19 | CC(C)n1c(=O)c(-c2cnc(NS(=O)(=O)CCC(F)(F)F)nc2)cc2cnc(N[C@H]3CC[C@H](N(C)C)CC3)nc21 [Example 233, N-(5-(2-(((1r,4r)-4-(Dimethylamino)cyclohexyl)amino)-8-isopropyl-7-oxo-7,8-dihydropyrido[2,3-d]pyrimidin-6-yl)pyrimidin-2-yl)-3,3,3-trifluoropropane-1-sulfonamide] | 1300
20 | COCCN1CC2(CCC(Nc3ncc4cc(-c5ccc(NS(=O)(=O)CCC(F)(F)F)c(F)c5)c(=O)n(C(C)C)c4n3)CC2)C1 [Example 234, 3,3,3-Trifluoro-N-(2-fluoro-4-(8-isopropyl-2-((2-(2-methoxyethyl)-2-azaspiro[3.5]nonan-7-yl)amino)-7-oxo-7,8-dihydropyrido[2,3-d]pyrimidin-6-yl)phenyl)propane-1-sulfonamide] | 200
21 | CC(C)n1c(=O)c(-c2ccc(NS(=O)(=O)CCC(F)(F)F)c(F)c2)cc2cnc(NC3CCC4(CC3)CN(CCF)C4)nc21 [Example 235, 3,3,3-trifluoro-N-(2-fluoro-4-(2-((2-(2-fluoroethyl)-2-azaspiro-[3.5]nonan-7-yl)amino)-8-isopropyl-7-oxo-7,8-dihydropyrido[2,3-d]-pyrimidin-6-yl)phenyl)-propane-1-sulfonamide] | 300
22 | CC(C)n1c(=O)c(-c2ccc(NS(=O)(=O)Cc3ccccc3)nc2)nc2cnc(N[C@@H]3CNC[C@@H](F)C3)nc21 [Example 236, N-[5-[2-[[(3S,5S)-5-fluoro-3-piperidyl]amino]-8-isopropyl-7-oxo-pteridin-6-yl]-2-pyridyl]-1-phenyl-methanesulfonamide] | 500
23 | CC(C)n1c(=O)c(-c2ccc(NS(=O)(=O)Cc3ccccc3F)nc2)nc2cnc(N[C@@H]3CNC[C@@H](F)C3)nc21 [Example 237, 1-(2-Fluorophenyl)-N-[5-[2-[[(3S,5S)-5-fluoro-3-piperidyl]amino]-8-isopropyl-7-oxo-pteridin-6-yl]-2-pyridyl]methanesulfonamide] | 300
24 | CC(C)n1c(=O)c(-c2ccc(NS(=O)(=O)CCC(C)(F)F)nc2)nc2cnc(N[C@H]3CC[C@H](N(C)C)CC3)nc21 [Example 238, N-[5-[2-[[4-(Dimethylamino)cyclohexyl]amino]-8-isopropyl-7-oxo-pteridin-6-yl]-2-pyridyl]-3,3-difluoro-butane-1-sulfonamide] | 400
